PubChem BioAssay (NCI)
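Tested at 5 concentrations; 48 h exposure; 96-well plates; endpoints linearly interpolated, else capped at highest concentration. TGI is the concentration that stops growth completely.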

Tests used:
Assay in all cases: DTP human tumour cell line panel, 48 h
[1] = test system: 786-0 renal
[2] = test system: A549 NSCLC
[3] = test system: CCRF-CEM leukemia
[4] = test system: COLO 205 colon
[5] = test system: DLD-1 colon
[6] = test system: DMS 114 small cell lung
[7] = test system: DMS 273 small cell lung
[8] = test system: EKVX NSCLC
[9] = test system: HCC-2998 colon
[10] = test system: HCT-116 colon
[11] = test system: HCT-15 colon
[12] = test system: HL-60(TB) leukemia
[13] = test system: HOP-62 NSCLC
[14] = test system: HT29 colon
[15] = test system: IGROV1 ovarian
[16] = test system: K-562 leukemia
[17] = test system: KM12 colon
[18] = test system: LOX IMVI melanoma
[19] = test system: LXFL 529 NSCLC
[20] = test system: M14 melanoma
[21] = test system: M19-MEL melanoma
[22] = test system: MOLT-4 leukemia
[23] = test system: NCI-H226 lung
[24] = test system: NCI-H23 lung
[25] = test system: OVCAR-3 ovarian
[26] = test system: OVCAR-4 ovarian
[27] = test system: OVCAR-8 ovarian
[28] = test system: RPMI-8226 leukemia
[29] = test system: SF-268 CNS
[30] = test system: SF-295 CNS
[31] = test system: SF-539 CNS
[32] = test system: SK-MEL-28 melanoma
[33] = test system: SK-MEL-5 melanoma
[34] = test system: SK-OV-3 ovarian
[35] = test system: SN12C renal
[36] = test system: SNB-19 CNS
[37] = test system: SNB-75 CNS
[38] = test system: SNB-78 CNS
[39] = test system: SR leukemia
[40] = test system: SW-620 colon
[41] = test system: TK-10 renal
[42] = test system: UACC-257 melanoma
[43] = test system: UACC-62 melanoma
[44] = test system: UO-31 renal
[45] = test system: XF 498 CNS
[46] = test system: A498 renal
[47] = test system: ACHN renal
[48] = test system: CAKI-1 renal
[49] = test system: HOP-18 NSCLC
[50] = test system: HOP-92 NSCLC
[51] = test system: KM20L2 colon
[52] = test system: MALME-3M melanoma
[53] = test system: NCI-H460 lung
[54] = test system: NCI-H522 lung
[55] = test system: OVCAR-5 ovarian
[56] = test system: SK-MEL-2 melanoma
[57] = test system: U251 CNS

With `N#CNC1=NC(Cc2ccccc2)C(=O)N1CCc1c[nH]c2ccccc12` (stereo unspecified) the TGI [1] was 42.1 µM, the TGI [2] was > 100 µM and the TGI [3] was 74.6 µM. For the same compound, the TGI [4] was 43.6 µM, the TGI [5] was > 100 µM and the TGI [6] was 91.9 µM. The TGI [7] was > 100 µM, the TGI [8] was 81.5 µM and the TGI [9] was 48.6 µM. The TGI [10] was 50.4 µM, the TGI [11] was > 100 µM and the TGI [12] was 60.5 µM. For the same compound, the TGI [13] was 92.1 µM, the TGI [14] was > 100 µM and the TGI [15] was > 100 µM. The TGI [16] was > 100 µM, the TGI [17] was > 100 µM and the TGI [18] was > 100 µM. The TGI [19] was > 100 µM, the TGI [20] was > 100 µM and the TGI [21] was 92.4 µM. The TGI [22] was 58.3 µM, the TGI [23] was > 100 µM and the TGI [24] was > 100 µM. For the same compound, the TGI [25] was > 100 µM, the TGI [26] was > 100 µM and the TGI [27] was > 100 µM. For the same compound, the TGI [28] was > 100 µM, the TGI [29] was 83.5 µM and the TGI [30] was > 100 µM. It also gave a TGI [31] of 83.2 µM, a TGI [32] of 67.8 µM and a TGI [33] of 41.7 µM. The TGI [34] was 80.2 µM, the TGI [35] was > 100 µM and the TGI [36] was > 100 µM. For the same compound, the TGI [37] was 33.2 µM, the TGI [38] was 63 µM and the TGI [39] was > 100 µM. The TGI [40] was > 100 µM, the TGI [41] was 89.9 µM and the TGI [42] was > 100 µM. For the same compound, the TGI [43] was 86 µM, the TGI [44] was 64.5 µM and the TGI [45] was 68.4 µM.
In the case of `O=C(CCC(=O)Nc1ccc(Cl)c(Cl)c1)CC(=O)c1ccc(Cl)cc1`, the TGI [1] is reported as > 100 µM, the TGI [46] is reported as > 100 µM and the TGI [2] is reported as > 100 µM. For the same compound, the TGI [47] was > 100 µM, the TGI [48] was > 100 µM and the TGI [3] was > 100 µM. The TGI [4] was > 100 µM, the TGI [5] was > 100 µM and the TGI [6] was > 100 µM. For the same compound, the TGI [7] was > 100 µM, the TGI [8] was > 100 µM and the TGI [9] was > 100 µM. For the same compound, the TGI [10] was > 100 µM, the TGI [11] was > 100 µM and the TGI [12] was > 100 µM. The TGI [49] was > 100 µM, the TGI [50] was > 100 µM and the TGI [14] was > 100 µM. The TGI [15] was > 100 µM, the TGI [16] was > 100 µM and the TGI [17] was > 100 µM. The TGI [51] was > 100 µM, the TGI [18] was > 100 µM and the TGI [19] was > 100 µM. For the same compound, the TGI [20] was > 100 µM, the TGI [21] was > 100 µM and the TGI [52] was > 100 µM. The TGI [22] was > 100 µM, the TGI [23] was > 100 µM and the TGI [24] was > 100 µM. The TGI [53] was > 100 µM, the TGI [54] was > 100 µM and the TGI [25] was > 100 µM. The TGI [26] was > 100 µM, the TGI [55] was > 100 µM and the TGI [27] was > 100 µM. The TGI [28] was > 100 µM, the TGI [29] was > 100 µM and the TGI [30] was > 100 µM. For the same compound, the TGI [31] was > 100 µM, the TGI [56] was > 100 µM and the TGI [34] was > 100 µM. The TGI [35] was > 100 µM, the TGI [36] was > 100 µM and the TGI [40] was > 100 µM. The TGI [41] was > 100 µM, the TGI [57] was > 100 µM and the TGI [42] was > 100 µM. The TGI [43] was > 100 µM, the TGI [44] was > 100 µM and the TGI [45] was > 100 µM.
For `O=S1(=O)OCCOS(=O)(=O)C1(I)I`, the TGI [1] was 35 µM, the TGI [46] was 30.3 µM and the TGI [2] was 71.1 µM. The TGI [48] was 35.7 µM, the TGI [3] was 35.6 µM and the TGI [4] was 37.8 µM. For the same compound, the TGI [5] was 35.8 µM, the TGI [6] was 43.9 µM and the TGI [7] was 47.3 µM. The TGI [8] was 59 µM, the TGI [9] was 35.2 µM and the TGI [10] was 29.9 µM. For the same compound, the TGI [12] was 68.3 µM, the TGI [13] was 38.9 µM and the TGI [50] was 29.8 µM. The TGI [14] was 69.4 µM, the TGI [15] was 63.8 µM and the TGI [16] was 74.6 µM. For the same compound, the TGI [17] was 40.8 µM, the TGI [18] was 30.5 µM and the TGI [19] was 27.3 µM. It also gave a TGI [20] of 50.7 µM, a TGI [21] of 53.8 µM and a TGI [52] of 37.6 µM. The TGI [22] was 56.9 µM, the TGI [23] was 29.7 µM and the TGI [24] was 27.9 µM. For the same compound, the TGI [54] was 45.2 µM, the TGI [25] was 73.8 µM and the TGI [26] was 48.9 µM. It also gave a TGI [27] of 59.5 µM, a TGI [28] of 36.8 µM and a TGI [29] of 74.7 µM. It also gave a TGI [30] of 90.8 µM, a TGI [31] of 40.1 µM and a TGI [56] of 39.5 µM. For the same compound, the TGI [32] was 55.2 µM, the TGI [33] was 30 µM and the TGI [34] was 47.2 µM. It also gave a TGI [35] of 38.2 µM, a TGI [36] of 55.3 µM and a TGI [37] of 48.7 µM. For the same compound, the TGI [38] was 86.4 µM, the TGI [39] was 49.1 µM and the TGI [40] was 39.3 µM. The TGI [41] was 70.3 µM, the TGI [42] was 46.3 µM and the TGI [43] was 30.3 µM. The TGI [44] was 33.3 µM and the TGI [45] was 37.5 µM.
